Drawing on ChEMBL document CHEMBL4251725, “Azabicyclic Fused Pyrimidine Derivatives Useful for the Treatment of Alzheimer's Disease” (ACS Med Chem Lett, 2018), this text covers EC50 for two molecules.

The assay deals with Gamma-secretase. Kind of assay: Inhibition of gamma-secretase in human H4 cells harboring APP695 K595N/M596L swedish mutant after 24 hrs by AlphaLisa assay. Format: cell-based. On the technique in general: Bead proximity is the source of the signal in Alpha formats.

On to `CNc1nc(Nc2ccc(-n3cnc(C)n3)c(F)c2)nc2c1C(C)(C)CCN2c1ccc(F)cc1`, for which a half-maximal effect (EC50) was put at 0.008 µM.

In the case of `CNc1nc(Nc2ccc(-n3cnc(C)c3)c(OC)c2)nc2c1C(C)(C)CN2C1CC(F)(F)C1`, the EC50 (in general, the concentration needed to bring the measured effect to its halfway point) was 0.014 µM.
